Measured values: patent publication US4461831A, “Antitumor agents albacarcins V and M” (Bristol-Myers Company, priority 1982, dated 1984)
Converted amounts (≈) assume the structure as drawn. Read-outs that look alike come from different tables or passages of the source.

What was measured:
[1] = tested on: Streptomyces albaduncus strain C38291; assay: growth inhibition of producing strain by antibiotics; format: cell-based
Source text: The growth of strain C38291 is inhibited by streptomycin or tetracycline, but not by benzylpenicillin, ampicillin or erythromycin. The sodium chloride tolerance is seen at 8% or less, but not at 10% or more. Melanin is not produced from L-3,4-dihydroxy phenylalanine (L-DOPA). Among eleven diagnostic sugars described in Bergey's Manual, 8th ed. (1974), only raffinose is not utilized by strain C38291. The physiological characteristics and utilization of carbohydrates are shown in Tables II and III, respectively.

[2] = reported in Antibiotiki 22: 963-967 at 967, 1977; cited from earlier work
gram-positive bacteria = assay: antibacterial activity, agar dilution, gram-positive summary; format: cell-based; conditions: summary of Table IV
Method: (§1) The antibacterial activities of albacarcin V and M were determined by a serial two-fold agar dilution method.

Klebsiella pneumoniae = assay: antibacterial activity, serial two-fold agar dilution method; format: cell-based; conditions: Strain No. 15130
Method: as §1

Staphylococcus aureus = assay: as above; format: cell-based; conditions: for MIC: Staphylococcus aureus, read-out: Minimum Inhibitory Concentration
Method: as §1

Streptococcus pyogenes = assay: as above; format: cell-based; conditions: Strain No. 9604
Method: as §1

Streptococcus pneumoniae = assay: as above; format: cell-based; conditions: Strain No. 9585
Method: as §1

Proteus vulgaris = assay: as above; format: cell-based; conditions: Strain No. 21559
Method: as §1

Pseudomonas aeruginosa = assay: as above; format: cell-based; conditions: Strain No. 9843A
Method: as §1

Proteus mirabilis = assay: as above; format: cell-based; conditions: Strain No. 9900
Method: as §1

Serratia marcescens = assay: as above; format: cell-based; conditions: Strain No. 20019
Method: as §1

Escherichia coli = assay: as above; format: cell-based
Method: as §1

Enterobacter cloacae = assay: as above; format: cell-based; conditions: Strain No. 9659
Method: as §1

P388 leukemia = format: in vivo, CDF1 female mice; conditions: for Effect MST % T/C / MST (median survival time): 3X, Days 1,4,7; for host survival in the P388 leukemia screening test (in words): mouse, in vivo
Source text: Details of the methods used in this procedure have been described in Cancer Chemother. Rep. 3: 1-87 (Part 3), 1972.
Host CDF1 .female. mice
Treatment 3X, Days 1,4,7
Evaluation MST = median survival time
Effect % T/C = (MST treated/MST control) × 100
Criteria % T/C ≥ 125 considered significant antitumor activity.

gram-negative bacteria = assay: antibacterial activity, agar dilution, gram-negative summary; format: cell-based; conditions: at the highest dose tested
Method: as §1

[H]/N=C(/N)N[C@H]1[C@H](O)[C@@H](O)[C@H](O[C@@H]2O[C@@H](C)[C@](O)(C=O)[C@H]2O[C@@H]2O[C@@H](CO)[C@H](O)[C@@H](O)[C@@H]2NC)[C@@H](N/C(N)=N\[H])[C@@H]1O [streptomycin]
growth of strain C38291 inhibited or not [1]: inhibited

virenomycin
antitumor activity (in words) [2]: comparatively low antitumor activity and narrow spectrum

CC[C@H]1OC(=O)[C@H](C)[C@@H](O[C@H]2C[C@@](C)(OC)[C@@H](O)[C@H](C)O2)[C@H](C)[C@@H](O[C@@H]2O[C@H](C)C[C@H](N(C)C)[C@H]2O)[C@](C)(O)C[C@@H](C)C(=O)[C@H](C)[C@@H](O)[C@]1(C)O [erythromycin]
growth of strain C38291 inhibited or not [1]: not

CN(C)[C@@H]1C(=O)C(C(N)=O)=C(O)[C@@]2(O)C(=O)C3=C(O)c4c(O)cccc4[C@@](C)(O)[C@H]3C[C@@H]12 [tetracycline]
growth of strain C38291 inhibited or not [1]: inhibited

COc1cc2c(oc(=O)c3cc(C)cc(OC)c32)c2c(C3OC(C)C(O)C(C)(O)C3O)ccc(O)c12 (stereo not drawn) [Albacarcin M, albacarcin M]
gram-positive antibacterial activity (in words) (gram-positive bacteria): moderate gram-positive antibacterial activity
MIC (Klebsiella pneumoniae; Klebsiella pneumoniae, read-out: Minimum Inhibitory Concentration): > 50 µg/mL
MIC (Staphylococcus aureus; Strain No. 9497): 0.8 µg/mL (≈ 1.61 µM)
MIC (Staphylococcus aureus; Strain No. 9537): 3.2 µg/mL (≈ 6.44 µM)
MIC (Staphylococcus aureus; Strain No. 9606): 3.2 µg/mL (≈ 6.44 µM)
MIC (Staphylococcus aureus; Strain No. 20688): 1.6 µg/mL (≈ 3.22 µM)
MIC (Streptococcus pyogenes; Streptococcus pyogenes, read-out: Minimum Inhibitory Concentration): 1.6 µg/mL (≈ 3.22 µM)
MIC (Streptococcus pneumoniae; Streptococcus pneumoniae, read-out: Minimum Inhibitory Concentration): 0.4 µg/mL (≈ 0.806 µM)
MIC (Proteus vulgaris; Proteus vulgaris, read-out: Minimum Inhibitory Concentration): > 50 µg/mL
MIC (Pseudomonas aeruginosa; Pseudomonas aeruginosa, read-out: Minimum Inhibitory Concentration): > 50 µg/mL
MIC (Proteus mirabilis; Proteus mirabilis, read-out: Minimum Inhibitory Concentration): > 50 µg/mL
MIC (Serratia marcescens; Serratia marcescens, read-out: Minimum Inhibitory Concentration): > 50 µg/mL
MIC (Escherichia coli; Escherichia coli, Strain No. 15119, read-out: Minimum Inhibitory Concentration): > 50 µg/mL
Minimum Inhibitory Concentration (Escherichia coli; Strain No. 20341-1): > 50 µg/mL
MIC (Enterobacter cloacae; Enterobacter cloacae, read-out: Minimum Inhibitory Concentration): > 50 µg/mL
Effect MST % T/C (P388 leukemia; 8 mg/kg/inj): 113 % T/C
MST (median survival time) (P388 leukemia; 8 mg/kg/inj): 9.0 days
Effect MST % T/C (P388 leukemia; 16 mg/kg/inj): 119 % T/C
MST (median survival time) (P388 leukemia; 16 mg/kg/inj): 9.5 days
Effect MST % T/C (P388 leukemia; 32 mg/kg/inj): 150 % T/C
MST (median survival time) (P388 leukemia; 32 mg/kg/inj): 12.0 days
Effect MST % T/C (P388 leukemia; 64 mg/kg/inj): 150 % T/C
MST (median survival time) (P388 leukemia; 64 mg/kg/inj): 12.0 days
Effect MST % T/C (P388 leukemia; 128 mg/kg/inj): 175 % T/C
MST (median survival time) (P388 leukemia; 128 mg/kg/inj): 14.0 days
Effect MST % T/C (P388 leukemia; 256 mg/kg/inj): 200 % T/C
MST (median survival time) (P388 leukemia; 256 mg/kg/inj): 16.0 days
host survival in the P388 leukemia screening test (in words) (P388 leukemia): significantly prolong host survival
gram-negative activity (in words) (gram-negative bacteria): Little or no gram-negative activity

CC1(C)S[C@@H]2[C@H](NC(=O)Cc3ccccc3)C(=O)N2[C@H]1C(=O)O [benzylpenicillin]
growth of strain C38291 inhibited or not [1]: not

CC1(C)S[C@@H]2[C@H](NC(=O)[C@H](N)c3ccccc3)C(=O)N2[C@H]1C(=O)O [ampicillin]
growth of strain C38291 inhibited or not [1]: not

C=Cc1cc(OC)c2c(c1)c(=O)oc1c2cc(OC)c2c(O)ccc(C3OC(C)C(O)C(C)(O)C3O)c21 (stereo not drawn) [Albacarcin V, albacarcin V]
antibacterial potency relative to albacarcin M (gram-positive bacteria): more potent than albacarcin M
gram-positive antibacterial activity (in words) (gram-positive bacteria): moderate gram-positive antibacterial activity
Minimum Inhibitory Concentration (Klebsiella pneumoniae): > 50 µg/mL
Minimum Inhibitory Concentration (Staphylococcus aureus; Strain No. 9497): 0.0125 µg/mL
Minimum Inhibitory Concentration (Staphylococcus aureus; Strain No. 9537): 0.0125 µg/mL
Minimum Inhibitory Concentration (Staphylococcus aureus; Strain No. 9606): 0.4 µg/mL
Minimum Inhibitory Concentration (Staphylococcus aureus; Strain No. 20688): 0.1 µg/mL
Minimum Inhibitory Concentration (Streptococcus pyogenes): 0.05 µg/mL
Minimum Inhibitory Concentration (Streptococcus pneumoniae): 0.025 µg/mL
Minimum Inhibitory Concentration (Proteus vulgaris): 3.2 µg/mL
Minimum Inhibitory Concentration (Pseudomonas aeruginosa): > 50 µg/mL
Minimum Inhibitory Concentration (Proteus mirabilis): > 50 µg/mL
Minimum Inhibitory Concentration (Serratia marcescens): > 50 µg/mL
Minimum Inhibitory Concentration (Escherichia coli; Strain No. 15119): > 50 µg/mL
Minimum Inhibitory Concentration (Escherichia coli; Strain No. 20341-1): > 50 µg/mL
Minimum Inhibitory Concentration (Enterobacter cloacae): > 50 µg/mL
Effect MST % T/C (P388 leukemia; 8 mg/kg/inj): 113 % T/C
MST (median survival time) (P388 leukemia; 8 mg/kg/inj): 9.0 days
Effect MST % T/C (P388 leukemia; 16 mg/kg/inj): 131 % T/C
MST (median survival time) (P388 leukemia; 16 mg/kg/inj): 10.5 days
Effect MST % T/C (P388 leukemia; 32 mg/kg/inj): 150 % T/C
MST (median survival time) (P388 leukemia; 32 mg/kg/inj): 12.0 days
Effect MST % T/C (P388 leukemia; 64 mg/kg/inj): 194 % T/C
MST (median survival time) (P388 leukemia; 64 mg/kg/inj): 15.5 days
Effect MST % T/C (P388 leukemia; 128 mg/kg/inj): 200 % T/C
MST (median survival time) (P388 leukemia; 128 mg/kg/inj): 16.0 days
Effect MST % T/C (P388 leukemia; 256 mg/kg/inj): 100 % T/C
MST (median survival time) (P388 leukemia; 256 mg/kg/inj): 8.0 days
potency relative to albacarcin M in P388 test (P388 leukemia; comparing optimum doses (maximum T/C) and minimum effective dose (lowest dose giving T/C>125)): twice as potent as albacarcin M
host survival in the P388 leukemia screening test (in words) (P388 leukemia): significantly prolong host survival
gram-negative activity (in words) (gram-negative bacteria): Little or no gram-negative activity
